Patent publication US8796281B2, “Lighting device having at least one heat sink” (Jinan University, priority 2010, dated 2014)
Entries after “also recorded” stand apart in the source; their conditions may differ.

Columns and labels:
aging accelerated mice = settings: intraperitoneally injected daily; cited from earlier work
24-month-old rats = settings: cited from earlier work
[1] = in vivo; cited from earlier work
Dopaminergic neurons = test: Cytoprotection on injuries of dopaminergic neurons induced by MPP+; assay type: cell-based; settings: 500 μM, 50 μM and 5 μM, MPP+ 10 μM, FIG. 5
Method: Dopaminergic neurons were cultured for 5 days, and L-Deprenyl, TMP and TN-2 were added in a concentration gradient of 500 μM, 50 μM and 5 μM respectively. Two hours later, MPP^+(with a final concentration of 10 μM) was added into each of the wells except those of the control.

PC12 cells = test: Cytoprotection of PC12 cells against t-BHP-induced damage (MTT); assay type: cell-based, rats; settings: t-BHP 200 μM, FIG. 3
Method: PC12 cells were inoculated in a 96-well plate of strong adsorption with 90 μL per well, cultured for 36 hrs in an incubator set at 37° C. and 5% CO2. After 36 hrs, each of the drugs was added in four concentration gradients. Cultured for half an hour in an incubator set at 37° C. and 5% CO2, replaced with serum-free medium, t-BHP ([…], final concentration of 200 μM) was added in each of the wells except the well of the control. Then the material was placed and cultured in an incubator for 24 hrs. The cells were cultured for 24 hrs, and MTT (15 μL, 5 mg/mL) was added in each of the wells. The material was cultured in an incubator for 4 hrs, and then DMSO ([…]) was added in each of the wells to be further incubated for at least half an hour to ensure the crystals were completely dissolved. The absorbance (A value) was measured by using a micro-plate reader at 570 nm.

[2] = tested on: rats with ischemia caused by MCAo; test: Protection of rats having cerebral ischemia caused by MCAO (TTC, extent of cerebral infarction); assay type: in vivo; settings: 65 mg/kg intravenously 1 hr after ischemia, 2 hrs ischemia, 24 hrs reperfusion, FIG. 4
Method: Anesthesia was performed on rats (female SD rats, in body weight of 260-300 g) with intraperitoneal injection of 10% hydrated chloral hydrate in a dose of 400 mg/kg or with inhalation of 3.5% halothane. At the entrance of MCAO (Middle Cerebral Artery Occlusion Ischemia) was blocked with a nylon wire to cause cerebral ischemia. After ischemia occurred for 1 hr, the rats were respectively intravenously injected with EDA (63 mg/kg), TBN (80 mg/kg), TN-2 (65 mg/kg), and saline (control group). There were 6 rats in each group. After ischemia occurred for 2 hrs, the nylon wires were removed, and reperfusion was performed for 24 hrs. Brain tissues were taken and the cerebellums were removed. The material was rinsed in PBS solution, and put in a freezer set at −20° C. for a moment, and the brain tissues were cut into slices with a thickness of about 2 mm, and immediately placed in a solution of 0.5% triphenyltetrazolium chloride (TTC). Incubation was performed at 37° C. for 30 minutes. The extent of cerebral infarction was evaluated. […] In FIG. 4, the data were examined by one-tailed t-test; the mark “*” refers to the data in comparison with the control; drug dosage: TBN (80 mg/kg), and Edaravone (63 mg/kg); and each of the drugs were used in equal molarity.

[3] = 32 mg/kg intraperitoneally daily for 9.5 months

CC(C)(C)/[N+]([O-])=C/c1ccccc1 [PBN, Phenyl-tert-Butyl Nitrones]
increase in the lifespan of the mice (aging accelerated mice): 33% | cognitive ability for older rats (24-month-old rats; [3]): enhanced | lipid peroxidation reactions in cerebral cortex and globus pallidus (24-month-old rats; [3]): diminished | rats still alive (24-month-old rats; when the experiment was run for 32 months): 7 of the 11

Cc1nc(C)c(C)nc1C [TMP, Tetramethylpyrazine]
bioavailability [1]: low

Cc1nc(/C=[N+](/[O-])C(C)(C)C)c(C)nc1/C=[N+](/[O-])C(C)(C)C [TN-2]
cytoprotection to the MPP+-induced cell damage (Dopaminergic neurons): significant | cytoprotection towards the t-BHP-induced cell damage (PC12 cells; 24 hrs, MTT absorbance at 570 nm): significant effect of cytoprotection; also recorded: significant protective effects | intensity of the cytoprotective effect compared with TMP (PC12 cells): significantly higher than that of TMP | treatment effects on stroke of the rats (extent of cerebral infarction) [2]: significant treatment effects
